Patent US20090106856A1, “Selection System for Wheat” (BASF PLANT SCIENCE GMBH, priority 2005, published 2009)

Columns and labels:
[1] = system: control seedlings (wheat); test: Spraying of seedlings with D-serine; assay type: in vivo, Triticum aestivum; conditions: 5 days old control seedlings; 50-300 mM
Source text: Unlike Arabidopsis (Ericson et al. 2004a), spraying of 5 days old control and trans-genic seedlings with D-serine was not efficient in wheat. […] Watering of the plants was also not sufficient. Since the uptake, mobility in soil and detoxification by microorganisms are all potential barriers for D-serine in the soil, the expectation of in soil selection seems bleak. Therefore, that the transgenic plants will use the products from detoxification of D-serine as an additional nitrogen supply was not fulfilled in soil.

[2] = system: non-transgenic wheat plants; test: D-serine as a nitrogen source in hydroponics; assay type: in vivo, Triticum aestivum
Procedure: T1 and T2 transgenic progenies were grown on hydroponics system where hydroponics solution (Gamborg and Wetter, 1975) was modified by replacing nitrogen with D-serine in five different concentrations (20, 30, 50 70 and 100 mM). Transgenic progenies and control seedlings were grown also on standard hydroponics solution as controls. The dry weigh of all 14 days old seedlings was measured.
Catabolic products of D-serine deaminase are ammonium and pyruvate—key compounds in plant metabolism. Theoretically, transgenic plants equipped with a functional dsdA gene are expected to utilize D-serine as a nitrogen source. We investigated this phenomenon in a hydroponic growth system by exchanging the nitrogen supply with D-serine. T2 progenies representing several independent transgenic events were subjected to two sets of hydroponic experiments.
The first hydroponics experiments were performed with plants from three independent transgenic lines 2256, 2258 and 2264 carrying the dsdA and ahas selectable marker genes and a range of D-serine concentrations (FIG. 15 I). […] Statistically significant differences between controls and transgenic plants on corresponding concentrations of D-serine were detected. Two of these transgenic lines were inhibited in all tested D-serine concentrations. […]

[3] = system: wheat variety Canon immature embryos / embryogenic callus; test: Agrobacterium-mediated transformation with dao1 constructs and selection of transgenic plants; assay type: cell-based, Triticum aestivum; conditions: 5 mM selection
Procedure: Explants were washed with PAW-Inf. medium and immersed in the above-described bacterial suspension for 2 h at 26° C. At the end of infection the explants were placed with scutellum side up on PAW-1 medium. The residual bacterial suspension is removed by pipeting out and air-drying of the infected embryos by opening plates for 15 min on the sterile banch. Plates were sealed with Parafilm and placed in thermostat at 26° C. in the dark for 5-6 days co-cultivation.
After co-cultivation period the explants were washed with sterile water and 500 mg/L Cefotaxime and filter paper dried before being transferred to PAW-2 callus induction-recovery medium containing 160 mg/l Timentin for 14 days (7 days dark/7 days semi light; 13.2 μmol m^−2s^−1). Explants with embryogenic callus were subculture to PAW-2 callus-proliferation medium containing 160 mg/l Timentin and corresponding selection 5 mM D-serine or 5 mM D-alanine or 3 mg/l bialaphos. In some experiments the selection on D-amino acids was starting on PAW-2 callus induction medium 0, 7, 14 and 21 days after co cultivation. Embryogenic callus was subculture twice on fresh selective medium for callus maintaining and regeneration on PAW-4 medium with corresponding selection. Cultures were maintained at 23° C. on light 60.2 μmol m^−2s^−1. Regenerated shoots were subculture to PAW-5 hormone free medium with corresponding selection (5 mM D-serine or 5 mM D-alanine or 3 mg/l bialaphos) for further growth and rooting. All media used in the transformation experiments were filter sterilized and are listed in above. After analyses transgenic plants were transferred to soil and placed for further growth in greenhouse. 1.4 Molecular and expression studies of the transgenic plants
Freshly isolated immature embryos from Canon were inoculated with Agrobacterium. In all experiments Agrobacterium tumefactions super binary vector system based on LBA4404 (pSB1) was used. The constructs pRLM205 containing the original dao1 gene and pRLM226 carrying modified Daol. Both constructs contain gusINT reporter marker gene (FIGS. 3, I and II). Following co cultivation the explants were transferred on callus induction PAW-2 selection free medium containing 160 mg/l Timentin to inhibit bacterial growth for 14 days. For selection embryogenic callus was transferred to PAW-2 selection medium containing 5 mM D-serine or 5 mM D-alanine respectively. Furthermore calli were sub cultured to fresh corresponding selection PAW-2 medium for maintaining. Embryogenic calli were trans-ferred on PAW-4 selection medium for regeneration 5-6 weeks after transformation. The emerging plantlets were further grown and rooted on PAW-5 hormone free selection medium. Well-developed and rooted on selection putative transgenic regenerants were selected in vitro within. When D-alanine was used as selection compound similar effects in callus growth, shoots regeneration and rooting of transgenic plants or non transgenic escapes selected on D-serine was observed. Both selection agents resulted with 1.1% to 1.2% transformation efficiency and no escape rate (Table 9).

[4] = system: wheat in vitro shoots; test: Killing curve: rooting of in vitro shoots; assay type: in vivo, Triticum aestivum
Source text: […] The effect of selection agents was observed two and tree weeks later. Number of plantlets with growing roots and green leaves were scored.
In vitro regenerated shoots from media lacking the selection compounds were collected and transferred on medium for rooting (½ MS salts hormone free). Roots formation, growth of the shoots and leaves elongation was scored two and four weeks later after sub culturing of these shoots to the medium supplemented with D-amino acids (Table 5).

For N[C@H](CO)C(=O)O [D-serine], the “toxicity symptoms after spraying” value [1] was “not sufficient to elicit toxicity symptoms”, the “growth of non-transgenic control plants in hydroponics” value ([2]; hydroponics solution supplemented with 30, 50 and 70 mM) was “not able to grow” and the “growth of non-transgenic plants in hydroponics” value ([2]; nitrogen replaced by D-serine, all tested concentrations (20, 30, 50, 70 and 100 mM)) was “fully inhibited”. The “ER (%) Escape Rate” value ([3]; pRLM205 (dao1 original)) was 0%, the “TE (%) Transformation Efficiency” value ([3]; pRLM205 (dao1 original)) was 1.1% and the “ER (%) Escape Rate” value ([3]; pRLM226 (dao1/ko modified)) was 0%. The “TE (%) Transformation Efficiency” value ([3]; pRLM226 (dao1/ko modified)) was 0.72%, the “root formation of non-transgenic shoots” value ([4]; 5 mM) was “not able to form roots” and the “Rooted Shoots (%)” value ([4]; Bobwhite, 1 mM) was 64%. For the same compound, the “Rooted Shoots (%)” value ([4]; Bobwhite, 3 mM) was 24%, the “Rooted Shoots (%)” value ([4]; Bobwhite, 5 mM) was 3% and the “Rooted Shoots (%)” value ([4]; Bobwhite, 10 mM) was 0%. The “Rooted Shoots (%)” value ([4]; Bobwhite, 15 mM) was 0%, the “Rooted Shoots (%)” value ([4]; Bobwhite, 25 mM) was 0% and the “Rooted Shoots (%)” value ([4]; Canon, 1 mM) was 56%. For the same compound, the “Rooted Shoots (%)” value ([4]; Canon, 3 mM) was 16%, the “Rooted Shoots (%)” value ([4]; Canon, 5 mM) was 2% and the “Rooted Shoots (%)” value ([4]; Canon, 10 mM) was 0%. For the same compound, the “Rooted Shoots (%)” value ([4]; Canon, 15 mM) was 0% and the “Rooted Shoots (%)” value ([4]; Canon, 25 mM) was 0%.
